According to patent US20130005747A1, “METHOD FOR SELECTING A CANCER THERAPY” (Cyclacel Limited, priority 2010, published 2013):

Tests used:
Test in all cases: Fractional growth, 72 h seliciclib
Format in all cases: cell-based, human
[1] = system: WM-115; settings: WM-115 (Skin), 15 μM seliciclib
Excerpt: (§1) A total of 270 human cancer cell lines from diverse cancer histopathologic types were investigated.

[2] = system: COLO-680N; settings: COLO-680N (Esophagus), 15 μM seliciclib
Excerpt: as §1

[3] = system: BEN; settings: BEN (Lung: NSCLC), 15 μM seliciclib
Excerpt: as §1

[4] = system: AN3CA; settings: AN3CA (Uterus), 15 μM seliciclib
Excerpt: as §1

[5] = system: G-402; settings: G-402 (Kidney), 15 μM seliciclib
Excerpt: as §1

[6] = system: PCI-15A; settings: PCI-15A (Head & Neck), 15 μM seliciclib
Excerpt: as §1

[7] = system: Caki-1; settings: Caki-1 (Kidney), 15 μM seliciclib
Excerpt: as §1

[8] = system: GTL-16; settings: GTL-16 (Stomach), 15 μM seliciclib
Excerpt: as §1

[9] = system: PA-TU-8988S; settings: PA-TU-8988S (Pancreas), 15 μM seliciclib
Excerpt: as §1

[10] = system: BT-549; settings: BT-549 (Breast), 15 μM seliciclib
Excerpt: as §1

[11] = system: Calu-1; settings: Calu-1 (Lung: NSCLC), 15 μM seliciclib
Excerpt: as §1

[12] = system: RT4; settings: RT4 (Bladder), 15 μM seliciclib
Excerpt: as §1

[13] = system: CAL-62; settings: CAL-62 (Thyroid), 15 μM seliciclib
Excerpt: as §1

[14] = system: 8505C; settings: 8505C (Thyroid), 15 μM seliciclib
Excerpt: as §1

[15] = system: A431; settings: A431 (Skin), 15 μM seliciclib
Excerpt: as §1

[16] = system: PCI-4A; settings: PCI-4A (Head & Neck), 15 μM seliciclib
Excerpt: as §1

[17] = system: KP-1N; settings: KP-1N (Pancreas), 15 μM seliciclib
Excerpt: as §1

[18] = system: Ca9-22; settings: Ca9-22 (Head & Neck), 15 μM seliciclib
Excerpt: as §1

[19] = system: H2052; settings: H2052 (Lung), 15 μM seliciclib
Excerpt: as §1

[20] = system: A2058; settings: A2058 (Skin), 15 μM seliciclib
Excerpt: as §1

[21] = system: UO-31; settings: UO-31 (Kidney), 15 μM seliciclib
Excerpt: as §1

[22] = system: C-4 I; settings: C-4 I (Cervix), 15 μM seliciclib
Excerpt: as §1

[23] = system: NCI-H647; settings: NCI-H647 (Lung: NSCLC), 15 μM seliciclib
Excerpt: as §1

[24] = system: RPMI 2650; settings: RPMI 2650 (Head & Neck), 15 μM seliciclib
Excerpt: as §1

[25] = system: SCaBER; settings: SCaBER (Bladder), 15 μM seliciclib
Excerpt: as §1

[26] = system: AGS; settings: AGS (Stomach), 15 μM seliciclib
Excerpt: as §1

[27] = system: TOV-112D; settings: TOV-112D (Ovary), 15 μM seliciclib
Excerpt: as §1

[28] = system: T.T; settings: T.T (Esophagus), 15 μM seliciclib
Excerpt: as §1

[29] = system: NCI-H1651; settings: NCI-H1651 (Lung: NSCLC), 15 μM seliciclib
Excerpt: as §1

[30] = system: NCI-H2023; settings: NCI-H2023 (Lung: NSCLC), 15 μM seliciclib
Excerpt: as §1

[31] = system: H2722; settings: H2722 (Lung), 15 μM seliciclib
Excerpt: as §1

[32] = system: PCI-6A; settings: PCI-6A (Head & Neck), 15 μM seliciclib
Excerpt: as §1

[33] = system: NCI-H2030; settings: NCI-H2030 (Lung: NSCLC), 15 μM seliciclib
Excerpt: as §1

[34] = system: MGH-MC-1; settings: MGH-MC-1 (Skin), 15 μM seliciclib
Excerpt: as §1

[35] = system: WM 266-4; settings: WM 266-4 (Skin), 15 μM seliciclib
Excerpt: as §1

[36] = system: SW 13; settings: SW 13 (Kidney), 15 μM seliciclib
Excerpt: as §1

[37] = system: C-4 II; settings: C-4 II (Cervix), 15 μM seliciclib
Excerpt: as §1

CC[C@H](CO)Nc1nc(NCc2ccccc2)c2ncn(C(C)C)c2n1 [seliciclib, roscovitine]
Fractional Growth [1]: 0.5068
Fractional Growth [2]: 0.6838
Fractional Growth [3]: 0.4149
Fractional Growth [4]: 0.2094
Fractional Growth [5]: 0.2708
Fractional Growth [6]: 0.4965
Fractional Growth [7]: 0.3885
Fractional Growth [8]: 0.6482
Fractional Growth [9]: 0.5791
Fractional Growth [10]: 0.758
Fractional Growth [11]: 0.6124
Fractional Growth [12]: 0.9342
Fractional Growth [13]: 0.3139
Fractional Growth [14]: 0.4214
Fractional Growth [15]: 0.3116
Fractional Growth [16]: 0.3628
Fractional Growth [17]: 0.6045
Fractional Growth [18]: 0.4623
Fractional Growth [19]: 0.3892
Fractional Growth [20]: 0.6341
Fractional Growth [21]: 0.3152
Fractional Growth [22]: 0.5067
Fractional Growth [23]: 0.4521
Fractional Growth [24]: 0.1937
Fractional Growth [25]: 0.5642
Fractional Growth [26]: 0.2157
Fractional Growth [27]: 0.3156
Fractional Growth [28]: 0.1271
Fractional Growth [29]: 0.6289
Fractional Growth [30]: 0.4148
Fractional Growth [31]: 0.8974
Fractional Growth [32]: 0.5818
Fractional Growth [33]: 0.3063
Fractional Growth [34]: 0.4543
Fractional Growth [35]: 0.4972
Fractional Growth [36]: 0.5624
Fractional Growth [37]: 0.7489
